Data published in patent publication US20200289645A1, “TREATMENTS AND METHODS FOR CONTROLLING HYPERTENSION” (Georgetown University, priority 2017, published 2020).
Entries after “also recorded” stand apart in the source; their conditions may differ. Blank lines part the entries; values can stand above or below the compound they belong to.

Assays:
[1] = test system: isolated renal afferent arterioles; assay: Isolated perfused renal afferent arteriole contractility; format: cell-based, mice
Description: FIG. 4 depicts the effect of BP1 on isolated renal afferent arteriole contractility. 4A, Isolated perfused renal afferent arteriole mounted on a perfusion pipette with diameter recorded. The internal diameter is 10 to 11 micrometers under control conditions (=100%). 4B to 4D, Impact of BP1 induction and/or FGF2 knockout (FGF2−/−) on angiotensin II (AngII) or norepinephine (NE) contractility. 4B, Effect of conditional BP1 expression (BP1 ON/OFF). […] The effect of AngII in FGF2−/− mice is shown for comparison (see panel C). 4C, Effect of AngII in afferent arterioles from FGF2−/− mice. […] BP1 alone or FGF2 alone are shown for comparison. 4D, Effect of NE in afferent arterioles from wt and FGF2−/− mice. Contractility induced by NE is not affected in FGF2−/− mice.
Isolated vessels provide an approach for the analysis of vascular function that is not affected by systemic cardiovascular regulation in the intact animal. BP1 up-regulation related to human hypertension was found in the kidneys that are key organs in systemic blood pressure regulation. Thus, the impact of BP1 expression was evaluated in isolated renal afferent arterioles that are the major renal resistance vessels. […] Addition of AngII to this preparation leads to a concentration-dependent constriction. […] Thus, the AngII contractile effect depends on FGFR signaling in isolated vessels as well as in arterioles in vivo (FIG. 3B).
The blockade of AngII effects in vessels from wt mice by an FGFR kinase inhibitor (FIG. 4B) corroborates the crucial role of FGF signaling for AngII efficacy. It is noteworthy that vessels from FGF2−/− mice still contracted in response to other ligands. For example, the effect of norepinephrine (NE) was indistinguishable between FGF2−/− and wt controls (FIG. 4D) indicating a selective crosstalk between AngII and FGF signaling. Renal AngII receptor 1 (AT1R) mRNA was not changed upon induction of BP1 expression or in FGF2−/− mice.
Because FGF2 and BP1 are extracellularly acting proteins, recombinant proteins were added to renal afferent arterioles from FGF2−/− mice to assess if this would rescue AngII vasoconstriction.

[2] = test system: FGF2−/− mice; assay: Telemetric MAP in FGF2-/- mice after exogenously administered AngII; format: in vivo; details: FGF2−/− relative to wild-type mice
Description: Kidneys contain amongst the highest concentrations of FGF2 protein that is immobilized in the extracellular matrix and can be released by BP1. To assess a contribution by FGF2, the efficacy of AngII was investigated and the crosstalk with BP1 in renal afferent arterioles from FGF2−/− mice. […] Also, the effect of exogenously administered AngII on MAP was reduced.

[3] = test system: cremaster arterioles; assay: Cremaster arteriole contractility in vivo (superfusion, intravital microscopy); set-up: species or system mice
Method: FIG. 3 depicts the effect of the induction of BP1 expression on cremaster arteriole contractility in vivo. 3A, Representative images of a single arteriole in a live animal at baseline, and after constriction or dilation by superfusion with AngII or acetylcholine respectively. The vessel diameter is recorded by intravital microphotography. 3B, Dose-response of AngII on arteriole diameter in mice with BP1 OFF (open symbols) or ON (for 48 hours; closed symbols). The FGFR kinase inhibitor PD173074 (PD) was administered intraperitoneally to a subset of animals (red symbols). […] 3C, Dose response of Phenylephrine (PE) on cremaster arteriole diameter in mice with BP1 OFF (open symbols) or ON (for 48 hours; closed symbols). Mean±SEM, n=4 animals/group.
To evaluate whether conditional BP1 expression sensitized resistance vessels in vivo, cremaster arterioles were exposed in anesthetized mice and superfused locally with vasoconstrictor or -dilator ligands. Representative intravital microscopic images of an arteriole at baseline, with AngII (constriction) or acetylcholine (dilation) superfusion is shown in FIG. 3A. […] This sensitization was prevented by pretreatment of animals with the FGFR kinase inhibitor PD173074 23 (FIG. 3B).
Thus, phenylephrine (PE) was selected as a ligand that activates alphal-adrenergic receptors. […] Neither the EC50 (2 μM) nor the maximal effect of PE were different between the BP1 ON and OFF groups (FIG. 3C). Thus, conditional expression of BP1 sensitizes arterioles to AngII in vivo. This sensitization was dependent on FGFR signaling.

[4] = test system: conscious transgenic mice; assay: Mean arterial pressure (MAP) by telemetry in conscious conditional BP1 transgenic mice; format: in vivo; details: night time MAP
Method: FIG. 2 depicts the effect of conditional expression of the BP1 transgene and of inhibitors on mean arterial pressure (MAP) and heart rate (HR). 2A, 2B, Circadian changes in MAP (A) and HR (B) by telemetry of conscious mice. Averages for 10 days before (BP1 OFF, open symbols) and 10 days after the induction of the BP1 transgene (BP1 ON, closed symbols) relative to the 24 hour clock time. Dark and light periods are indicated. Mean±SEM values (for n=10 time points) from one representative animal (total n=6). P<0.0001 by non-linear regression analysis and ANOVA. 2C, Effect of induction of BP1 transgene expression on night time MAP. Gene expression was induced by switching from a tetracycline containing to a regular chow (+DOX to −DOX; open and filled circles). Non-transgenic littermates (non-TG; triangles) were subjected to the same diet schedule. Mean±SEM of night time MAP; n=6 per group. ANOVA analysis of BP1 ON versus OFF or versus control group. ***, P<0.0001. 2D, 2E, Effect of treatment with candesartan (D) or tempol (E) on night time MAP of animals with the BP1 transgene OFF or ON. Mean±SEM; n=5 per group. *, P<0.05; **, P<0.01; ***, P<0.0001 by ANOVA.
To test the effect of conditional expression of BP1, mean arterial pressure (MAP) was monitored by telemetry in conscious transgenic mice. Under control conditions (BP1 OFF) there was a circadian rhythm of MAP that varied by 20 mm Hg between periods of activity (night time) and rest (day time). A sinus wave function described the day/night variation of the data (FIG. 2A). […] This overall increase in MAP coincided with a significant decrease in the heart rate and a dampened amplitude of circadian regulation (FIG. 2B). The increase of blood pressure occurred within two days of a switch to the tetracycline-free, regular diet in parallel with the induction of the BP1 transgene (FIG. 2C).
The increase in MAP and decrease in heart rate after induction of BP1 expression (FIG. 2A,B) was reminiscent of an angiotensin-like vasopressor effect that depends on reactive oxygen species (ROS) signaling. […]

Compound: CC[C@H](C)[C@H](NC(=O)[C@H](Cc1ccc(O)cc1)NC(=O)[C@@H](NC(=O)[C@H](CCCNC(=N)N)NC(=O)[C@@H](N)CC(=O)O)C(C)C)C(=O)N[C@@H](Cc1c[nH]cn1)C(=O)N1CCC[C@H]1C(=O)N[C@@H](Cc1ccccc1)C(=O)O [AngII, Angiotensin II]
AngII effect in afferent arterioles after conditional BP1 transgene expression ([1]; BP1 ON versus OFF): increases the AngII effect; also recorded: significantly enhanced effect
contraction of afferent arterioles from FGF2-/- mice ([1]; FGF2−/− mice): abolished; also recorded: failed to induce a contraction
effect of exogenously administered AngII on MAP [2]: reduced

Compound: CCN(CC)CCCCNc1ncc2cc(-c3cc(OC)cc(OC)c3)c(NC(=O)NC(C)(C)C)nc2n1 [PD173074]
effect on AngII constriction of afferent arterioles ([1]; 100 nM pretreatment of vessels): inhibited the effect of AngII
effect on AngII response in control animals ([3]; BP1 OFF, intraperitoneal): small and insignificant effect
effect on BP1-induced sensitization to AngII vasoconstriction ([3]; BP1 ON, pretreatment, intraperitoneal): prevented

EC50 ([3]; Mus musculus, not different between BP1 ON and OFF groups, read-out: EC50 of PE on cremaster arteriole diameter): 2000 nM
Compound: CNC[C@H](O)c1cccc(O)c1 [PE, phenylephrine]
sensitization of vessels by BP1 expression ([3]; BP1 ON versus OFF): did not sensitize

Compound: CC1(C)CC(O)CC(C)(C)N1[O] [Tempol, tempol]
effect on basal MAP ([4]; BP1 OFF): reduced basal MAP
effect on increase of MAP after BP1 induction [4]: prevented the increase in MAP after BP1 induction
effect on increase of MAP after BP1 induction ([4]; listed as tempol): prevented

Compound: NC[C@H](O)c1ccc(O)c(O)c1 [norepinephrine]
contractility in FGF2-/- versus wt afferent arterioles [1]: indistinguishable
contractility in FGF2-/- versus wt afferent arterioles ([1]; listed as NE): not affected

Compound: FGF2: recombinant fibroblast growth factor 2 protein
rescue of AngII vasoconstriction in afferent arterioles from FGF2-/- mice ([1]; recombinant proteins added, 20 ng/ml for 30 min): did not impact the AngII response
